In US9255090B2, “Heterocyclyl derivatives and their use as prostaglandin D2 receptor modulators” (Actelion Pharmaceuticals Ltd., priority 2012, dated 2016):

Biological target: hCRTH2 receptor (Homo sapiens (Human), UniProt Q9Y5Y4)
Experiment: hCRTH2 receptor membranes radioligand (3H-PGD2) displacement assay
Assay type: binding
Conditions: 3H-PGD2 radioligand displacement, HEK293-hCRTH2 membranes
Description: Biological Assays: Preparation of hCRTH2 Receptor Membranes and Radioligand Displacement Assay:
First, recombinant HEK293-hCRTH2 cells were detached from culture plates into 5 ml buffer A/plate (Buffer A: 5 mM Tris, 1 mM MgCl2-6H2O pH=7.4) using a rubber policeman. Cells were then transferred into centrifugation tubes and centrifuged for 5 min at 400 g. The cell pellet was resuspended in the same buffer and tubes were frozen at −80° C. Cells were thawed and membrane fragments were generated by homogenization using a polytron homogenizer (30 seconds). The membrane fragments were then centrifuged at 3000 g for 20 minutes and resuspended in buffer C (Buffer C: 75 mM Tris, 25 mM MgCl2, 250 mM Saccharose pH 7.4). Aliquots of membrane fragments were stored at −20° C.
Binding assay was performed in a final assay volume of 250 μl. First, 25 μl of test compound, previously diluted in Binding-Buffer (Binding-Buffer: 50 mM Tris-Base, 100 mM NaCl, 1 mM EDTA, 0.1% BSA (protease free), 0.01% NaN3, 10 mM MnCl2, pH 7.0) was placed into each well. After addition of 75 μl Binding-Buffer, 50 μl of the radioligand ^3H-PGD2 (at 2.5 nM (220.000 dpm/well) from ANAWA ART0662) was added to each well. Binding assay was started by addition of 100 μl CRTH2 membrane fragments, reaching a final concentration of 20 μg/well. For non-specific binding, PGD2 was added to the reaction mixture to […] final concentration. This assay mix was incubated for 90 minutes at room temperature and then filtered through a GF/C filter 96-well plate which was pre-soaked for 3 hours in 0.5% polyethyleneimine (PEI). The filter-wells were washed three times with ice cold Binding-Buffer. Then, 40 μl of Microscint-40 (Packard) was added to each well and the retained radioactivity quantified in a Topcount (Packard).

Chain of hCRTH2 receptor (Q9Y5Y4 whole entry): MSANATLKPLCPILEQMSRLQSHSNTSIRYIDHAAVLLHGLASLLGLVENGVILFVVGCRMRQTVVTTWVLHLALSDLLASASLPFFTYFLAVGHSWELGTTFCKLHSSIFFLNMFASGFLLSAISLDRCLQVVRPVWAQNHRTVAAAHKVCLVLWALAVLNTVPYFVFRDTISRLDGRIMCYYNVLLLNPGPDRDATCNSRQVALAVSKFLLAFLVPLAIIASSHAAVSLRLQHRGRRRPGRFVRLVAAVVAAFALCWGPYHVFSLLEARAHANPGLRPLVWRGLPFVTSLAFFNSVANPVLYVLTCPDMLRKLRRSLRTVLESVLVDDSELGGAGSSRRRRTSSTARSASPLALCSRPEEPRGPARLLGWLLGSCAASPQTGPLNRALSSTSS

Compound `O=C(O)Cc1ccc(-c2ccc(F)c3c2CN(C(=O)CC2CCOc4ccccc42)CC3)c(OCC(F)(F)F)c1` (racemic) [Example 285] has an IC50 of 3.5 nM.
Compound `CC(CC(=O)N1CCc2c(F)ccc(-c3ccc(CC(=O)O)cc3OCC(F)(F)F)c2C1)c1ccccn1` (racemic) [Example 288] has an IC50 of 10 nM.
In the case of `CC(C)Oc1ccc(CC(=O)O)cc1-c1ccc(F)c2c1CN(C(=O)CC1CCOc3ccccc31)CC2` (racemic) [Example 290], the IC50 is reported as 5 nM.
`CC(C)Oc1ccc(CC(=O)O)cc1-c1ccc(F)c2c1CN(C(=O)CC(C)c1ccccn1)CC2` (racemic) [Example 293] showed an IC50 of 1.6 nM.
With `Cc1cccc(C(C)CC(=O)N2CCc3c(F)ccc(-c4cc(CC(=O)O)ccc4OC(C)C)c3C2)n1` (racemic) [Example 294] the IC50 was 3.2 nM.
With `CC(C)Oc1ccc(CC(=O)O)cc1-c1ccc(F)c2c1CN(C(=O)CC1OCCc3ccccc31)CC2` (racemic) [Example 297] the IC50 was 1.9 nM.
`CC(C)Oc1ccc(CC(=O)O)cc1-c1ccc(F)c2c1CN(C(=O)CC1COc3ccccc31)CC2` (racemic) [Example 298] showed an IC50 of 1.2 nM.
Compound `O=C(O)Cc1ccc(OCC(F)(F)F)c(-c2ccc(F)c3c2CN(C(=O)CC2CCOc4ccccc42)CC3)c1` (racemic) [Example 299] has an IC50 of 14.8 nM.
Work on `CC(CC(=O)N1CCc2c(F)ccc(-c3cc(CC(=O)O)ccc3OCC(F)(F)F)c2C1)c1ccccn1` (racemic) [Example 302] yielded an IC50 of 8.1 nM.
For `O=C(O)Cc1ccc(OCC(F)(F)F)c(-c2ccc(F)c3c2CN(C(=O)CC2COCc4ccccc42)CC3)c1` (racemic) [Example 305], the IC50 was 3.4 nM.
Work on `O=C(O)Cc1ccc(OCC(F)(F)F)c(-c2ccc(F)c3c2CN(C(=O)CC2OCCc4ccccc42)CC3)c1` (racemic) [Example 306] yielded an IC50 of 7.4 nM.
With `O=C(O)Cc1ccc(OCC(F)(F)F)c(-c2ccc(F)c3c2CN(C(=O)CC2COc4ccccc42)CC3)c1` (racemic) [Example 307] the IC50 was 3.4 nM.
`CCOc1ccc(CC(=O)O)cc1-c1ccc(F)c2c1CN(C(=O)CC(CC)c1ccccn1)CC2` (racemic) [Example 308] was tested, and the IC50 was 13.1 nM.
Compound `CCOc1cc(CC(=O)O)ccc1-c1ccc(F)c2c1CN(C(=O)CC(CC)c1ccccn1)CC2` (racemic) [Example 313] has an IC50 of 7.8 nM.
Compound `CCOc1ccc(CC(=O)O)cc1-c1ccc(F)c2c1CN(C(=O)CC(c1ccccn1)C1CC1)CC2` (racemic) [Example 318] has an IC50 of 114 nM.
Compound `CCOc1cc(CC(=O)O)ccc1-c1ccc(F)c2c1CN(C(=O)CC(C)c1cccc(C)n1)CC2` (racemic) [Example 320] has an IC50 of 11.7 nM.
Work on `CCOc1cc(CC(=O)O)ccc1-c1ccc(F)c2c1CN(C(=O)CC1CC(C)(C)Oc3ccccc31)CC2` (racemic) [Example 323] yielded an IC50 of 1.8 nM.
For `CCOc1cc(CC(=O)O)ccc1-c1ccc(F)c2c1CN(C(=O)CC1COc3ccccc3C1)CC2` (racemic) [Example 324], the IC50 was 0.9 nM.
For `CCOc1cc(CC(=O)O)ccc1-c1ccc(F)c2c1CN(C(=O)C1CCc3cccc(OC)c3C1)CC2` (racemic) [Example 325], the IC50 was 1.8 nM.
`CCOc1cc(CC(=O)O)ccc1-c1ccc(F)c2c1CN(C(=O)CC1(C)CCCc3ccccc31)CC2` (racemic) [Example 326] was tested, and the IC50 was 2 nM.
`CCOc1cc(CC(=O)O)ccc1-c1ccc(F)c2c1CN(C(=O)CC1CCOc3cc(F)ccc31)CC2` (racemic) [Example 327] gave an IC50 of 0.2 nM.
In the case of `CCOc1ccc(CC(=O)O)cc1-c1ccc(F)c2c1CN(C(=O)C1CCc3cccc(OC)c3C1)CC2` (racemic) [Example 333], the IC50 is reported as 22.7 nM.
With `COc1ccc(CC(=O)O)cc1-c1ccc(F)c2c1CN(C(=O)C(C)Cc1cccnc1)CC2` (racemic) [Example 343] the IC50 was 291 nM.
In the case of `CC(C)Oc1cc(CC(=O)O)ccc1-c1ccc(F)c2c1CN(C(=O)CC(C)c1ccccn1)CC2` (racemic) [Example 346], the IC50 is reported as 3.7 nM.
`CC(C)Oc1cc(CC(=O)O)ccc1-c1ccc(F)c2c1CN(C(=O)CC1CCOc3ccccc31)CC2` (racemic) [Example 353] gave an IC50 of 1.2 nM.
`COc1ccc(CC(=O)O)cc1-c1ccc(F)c2c1CN(C(=O)CC1OCc3ccccc31)CC2` (racemic) [Example 362] showed an IC50 of 22.9 nM.
With `CCOc1ccc(CC(=O)O)cc1-c1ccc(F)c2c1CN(C(=O)OCC(C)CC)CC2` (racemic) [Example 380] the IC50 was 4.2 nM.
`COc1ccc(OC(C)C(=O)O)cc1-c1ccc(F)c2c1CN(C(=O)OCc1ccccc1)CC2` (racemic) [Example 414] showed an IC50 of 430 nM.
`CCC(Oc1ccc(OC)c(-c2ccc(F)c3c2CN(C(=O)OCc2ccccc2)CC3)c1)C(=O)O` (racemic) [Example 415] was tested, and the IC50 was 337 nM.
`CCOc1cc(C(C)C(=O)O)ccc1-c1ccc(F)c2c1CN(C(=O)OCc1ccccc1)CC2` (racemic) [Example 425] was tested, and the IC50 was 11.3 nM.
In the case of `Cc1ccc(CC(=O)O)cc1-c1ccc(F)c2c1CN(C(=O)OCc1ccccc1)CC2` [Example 7, 8-(5-Carboxymethyl-2-methyl-phenyl)-5-fluoro-3,4-dihydro-1H-isoquinoline-2-carboxylic acid benzyl ester], the IC50 is reported as 25.6 nM.
For `O=C(O)Cc1ccc(C(F)(F)F)c(-c2ccc(F)c3c2CN(C(=O)OCc2ccccc2)CC3)c1` [Example 8, 8-(5-Carboxymethyl-2-trifluoromethyl-phenyl)-5-fluoro-3,4-dihydro-1H-isoquinoline-2-carboxylic acid benzyl ester], the IC50 was 7.31 nM.
In the case of `O=C(O)Cc1ccc(Cl)c(-c2ccc(F)c3c2CN(C(=O)OCc2ccccc2)CC3)c1` [Example 9, 8-(5-Carboxymethyl-2-chloro-phenyl)-5-fluoro-3,4-dihydro-1H-isoquinoline-2-carboxylic acid benzyl ester], the IC50 is reported as 12.8 nM.
`O=C(O)Cc1ccc(F)c(-c2ccc(F)c3c2CN(C(=O)OCc2ccccc2)CC3)c1` [Example 10, 8-(5-Carboxymethyl-2-fluoro-phenyl)-5-fluoro-3,4-dihydro-1H-isoquinoline-2-carboxylic acid benzyl ester] showed an IC50 of 10.1 nM.
For `O=C(O)Cc1cc(-c2ccc(F)c3c2CN(C(=O)OCc2ccccc2)CC3)ccc1Cl` [Example 11, 8-(3-Carboxymethyl-4-chloro-phenyl)-5-fluoro-3,4-dihydro-1H-isoquinoline-2-carboxylic acid benzyl ester], the IC50 was 69.1 nM.
`O=C(O)Cc1cc(-c2ccc(F)c3c2CN(C(=O)OCc2ccccc2)CC3)ccc1F` [Example 12, 8-(3-Carboxymethyl-4-fluoro-phenyl)-5-fluoro-3,4-dihydro-1H-isoquinoline-2-carboxylic acid benzyl ester] showed an IC50 of 21.8 nM.
`COc1ccc(-c2ccc(F)c3c2CN(C(=O)OCc2ccccc2)CC3)cc1CC(=O)O` [Example 13, 8-(3-Carboxymethyl-4-methoxy-phenyl)-5-fluoro-3,4-dihydro-1H-isoquinoline-2-carboxylic acid benzyl ester] gave an IC50 of 72.3 nM.
`O=C(O)Cc1cc(F)cc(-c2ccc(F)c3c2CN(C(=O)OCc2ccccc2)CC3)c1` [Example 14, 8-(3-Carboxymethyl-5-fluoro-phenyl)-5-fluoro-3,4-dihydro-1H-isoquinoline-2-carboxylic acid benzyl ester] was tested, and the IC50 was 14.8 nM.
`COc1cc(CC(=O)O)cc(-c2ccc(F)c3c2CN(C(=O)OCc2ccccc2)CC3)c1` [Example 15, 8-(3-Carboxymethyl-5-methoxy-phenyl)-5-fluoro-3,4-dihydro-1H-isoquinoline-2-carboxylic acid benzyl ester] was tested, and the IC50 was 18.5 nM.
In the case of `O=C(O)Cc1cccc(-c2ccc(F)c3c2CN(C(=O)OCc2ccccc2)CC3)c1F` [Example 16, 8-(3-Carboxymethyl-2-fluoro-phenyl)-5-fluoro-3,4-dihydro-1H-isoquinoline-2-carboxylic acid benzyl ester], the IC50 is reported as 25.2 nM.
Compound `COc1ccc(CC(=O)O)cc1-c1ccc(F)c2c1CCN(C(=O)OCc1ccccc1)CC2` [Example 17, 6-(5-Carboxymethyl-2-methoxy-phenyl)-9-fluoro-1,2,4,5-tetrahydro-benzo[d]azepine-3-carboxylic acid benzyl ester] has an IC50 of 141 nM.
`COc1ccc(CC(=O)O)cc1-c1ccc(F)c2c1CN(C(=O)OCc1ccccc1)C2` [Example 18, 4-(5-Carboxymethyl-2-methoxy-phenyl)-7-fluoro-1,3-dihydro-isoindole-2-carboxylic acid benzyl ester] showed an IC50 of 165 nM.
Compound `O=C(O)Cc1cc(Cl)cc(-c2ccc(F)c3c2CN(C(=O)OCc2ccccc2)CC3)c1` [Example 19, 8-(3-Carboxymethyl-5-chloro-phenyl)-5-fluoro-3,4-dihydro-1H-isoquinoline-2-carboxylic acid benzyl ester] has an IC50 of 20.2 nM.
In the case of `CS(=O)(=O)c1ccc(CC(=O)O)cc1-c1ccc(F)c2c1CN(C(=O)OCc1ccccc1)CC2` [Example 20, 8-(5-Carboxymethyl-2-methanesulfonyl-phenyl)-5-fluoro-3,4-dihydro-1H-isoquinoline-2-carboxylic acid benzyl ester], the IC50 is reported as 16.3 nM.
`O=C(O)Cc1ccc(F)c(-c2cccc3c2CN(C(=O)OCc2ccccc2)CC3)c1` [Example 23, 8-(5-Carboxymethyl-2-fluoro-phenyl)-3,4-dihydro-1H-isoquinoline-2-carboxylic acid benzyl ester] was tested, and the IC50 was 192 nM.
